Results: PubChem BioAssay (NCI)
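How tested: cells in 96-well plates exposed to compound for 48 hours at five concentrations. Definition used: TGI = concentration required for complete inhibition of growth.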

Key:
Assay in all cases: growth of human tumour cells (NCI), 48 h
UO-31 renal = test system: UO-31 renal
DMS 114 small cell lung = test system: DMS 114 small cell lung
HCT-116 colon = test system: HCT-116 colon
HOP-62 NSCLC = test system: HOP-62 NSCLC
KM20L2 colon = test system: KM20L2 colon
COLO 205 colon = test system: COLO 205 colon
DLD-1 colon = test system: DLD-1 colon
K-562 leukemia = test system: K-562 leukemia
HCC-2998 colon = test system: HCC-2998 colon
HT29 colon = test system: HT29 colon
DMS 273 small cell lung = test system: DMS 273 small cell lung
SK-MEL-2 melanoma = test system: SK-MEL-2 melanoma
SNB-75 CNS = test system: SNB-75 CNS
KM12 colon = test system: KM12 colon
SF-539 CNS = test system: SF-539 CNS
NCI-H522 lung = test system: NCI-H522 lung
M19-MEL melanoma = test system: M19-MEL melanoma
MOLT-4 leukemia = test system: MOLT-4 leukemia
EKVX NSCLC = test system: EKVX NSCLC
UACC-257 melanoma = test system: UACC-257 melanoma
NCI-H23 lung = test system: NCI-H23 lung
OVCAR-8 ovarian = test system: OVCAR-8 ovarian
786-0 renal = test system: 786-0 renal
SN12C renal = test system: SN12C renal
CAKI-1 renal = test system: CAKI-1 renal
MALME-3M melanoma = test system: MALME-3M melanoma
OVCAR-5 ovarian = test system: OVCAR-5 ovarian
RPMI-8226 leukemia = test system: RPMI-8226 leukemia
UACC-62 melanoma = test system: UACC-62 melanoma
SNB-19 CNS = test system: SNB-19 CNS
NCI-H460 lung = test system: NCI-H460 lung
CCRF-CEM leukemia = test system: CCRF-CEM leukemia
SK-MEL-5 melanoma = test system: SK-MEL-5 melanoma
LOX IMVI melanoma = test system: LOX IMVI melanoma
ACHN renal = test system: ACHN renal
RXF 393 renal = test system: RXF 393 renal
TK-10 renal = test system: TK-10 renal
U251 CNS = test system: U251 CNS
SK-MEL-28 melanoma = test system: SK-MEL-28 melanoma
XF 498 CNS = test system: XF 498 CNS
SNB-78 CNS = test system: SNB-78 CNS
HCT-15 colon = test system: HCT-15 colon
SF-268 CNS = test system: SF-268 CNS
IGROV1 ovarian = test system: IGROV1 ovarian
OVCAR-3 ovarian = test system: OVCAR-3 ovarian
LXFL 529 NSCLC = test system: LXFL 529 NSCLC
SR leukemia = test system: SR leukemia
HL-60(TB) leukemia = test system: HL-60(TB) leukemia
OVCAR-4 ovarian = test system: OVCAR-4 ovarian
SF-295 CNS = test system: SF-295 CNS
M14 melanoma = test system: M14 melanoma
NCI-H226 lung = test system: NCI-H226 lung
SW-620 colon = test system: SW-620 colon
HOP-18 NSCLC = test system: HOP-18 NSCLC
HOP-92 NSCLC = test system: HOP-92 NSCLC
A498 renal = test system: A498 renal
A549 NSCLC = test system: A549 NSCLC

## COC(=O)C(=O)C(C(C)=O)C(=O)NCc1ccccc1 (configuration not stated)
UO-31 renal
  TGI: > 100 µM
DMS 114 small cell lung
  TGI: > 100 µM
HCT-116 colon
  TGI: > 100 µM
HOP-62 NSCLC
  TGI: > 100 µM
KM20L2 colon
  TGI: > 100 µM
COLO 205 colon
  TGI: > 100 µM
DLD-1 colon
  TGI: > 100 µM
K-562 leukemia
  TGI: > 100 µM
HCC-2998 colon
  TGI: > 100 µM
HT29 colon
  TGI: > 100 µM
DMS 273 small cell lung
  TGI: > 100 µM
SK-MEL-2 melanoma
  TGI: > 100 µM
SNB-75 CNS
  TGI: > 100 µM
KM12 colon
  TGI: > 100 µM
SF-539 CNS
  TGI: > 100 µM
NCI-H522 lung
  TGI: > 100 µM
M19-MEL melanoma
  TGI: > 100 µM
MOLT-4 leukemia
  TGI: > 100 µM
EKVX NSCLC
  TGI: > 100 µM
UACC-257 melanoma
  TGI: > 100 µM
NCI-H23 lung
  TGI: > 100 µM
OVCAR-8 ovarian
  TGI: > 100 µM
786-0 renal
  TGI: > 100 µM
SN12C renal
  TGI: > 100 µM
CAKI-1 renal
  TGI: > 100 µM
MALME-3M melanoma
  TGI: > 100 µM
OVCAR-5 ovarian
  TGI: > 100 µM
RPMI-8226 leukemia
  TGI: > 100 µM
UACC-62 melanoma
  TGI: > 100 µM
SNB-19 CNS
  TGI: > 100 µM
NCI-H460 lung
  TGI: > 100 µM
CCRF-CEM leukemia
  TGI: > 100 µM
SK-MEL-5 melanoma
  TGI: > 100 µM
LOX IMVI melanoma
  TGI: > 100 µM
ACHN renal
  TGI: > 100 µM
RXF 393 renal
  TGI: > 100 µM
TK-10 renal
  TGI: > 100 µM
U251 CNS
  TGI: > 100 µM
SK-MEL-28 melanoma
  TGI: > 100 µM
XF 498 CNS
  TGI: > 100 µM
SNB-78 CNS
  TGI: > 100 µM
HCT-15 colon
  TGI: > 100 µM
SF-268 CNS
  TGI: > 100 µM
IGROV1 ovarian
  TGI: > 100 µM
OVCAR-3 ovarian
  TGI: > 100 µM
LXFL 529 NSCLC
  TGI: > 100 µM
SR leukemia
  TGI: > 100 µM
HL-60(TB) leukemia
  TGI: > 100 µM
OVCAR-4 ovarian
  TGI: > 100 µM
SF-295 CNS
  TGI: > 100 µM
M14 melanoma
  TGI: > 100 µM
NCI-H226 lung
  TGI: > 100 µM
SW-620 colon
  TGI: 19 µM
HOP-18 NSCLC
  TGI: > 100 µM
HOP-92 NSCLC
  TGI: > 100 µM
A498 renal
  TGI: > 100 µM
A549 NSCLC
  TGI: > 100 µM
